Among the data in ChEMBL document CHEMBL1145498, “A systematic interaction map of validated kinase inhibitors with Ser/Thr kinases” (Proc Natl Acad Sci U S A, 2007) are ΔTm values, retold here.

The target of experiment [1] is Calcium/calmodulin-dependent protein kinase type II subunit gamma (Homo sapiens) (UniProt Q13555).
In experiment [2] the target is Dual specificity protein kinase CLK1 (Homo sapiens) (UniProt P49759).
Experiment [3] deals with Dual specificity protein kinase CLK3 (Homo sapiens) (UniProt P49761).
The target of experiment [4] is T1, Myotonin-protein kinase (Homo sapiens) (UniProt Q09013).
T1 sequence (whole entry): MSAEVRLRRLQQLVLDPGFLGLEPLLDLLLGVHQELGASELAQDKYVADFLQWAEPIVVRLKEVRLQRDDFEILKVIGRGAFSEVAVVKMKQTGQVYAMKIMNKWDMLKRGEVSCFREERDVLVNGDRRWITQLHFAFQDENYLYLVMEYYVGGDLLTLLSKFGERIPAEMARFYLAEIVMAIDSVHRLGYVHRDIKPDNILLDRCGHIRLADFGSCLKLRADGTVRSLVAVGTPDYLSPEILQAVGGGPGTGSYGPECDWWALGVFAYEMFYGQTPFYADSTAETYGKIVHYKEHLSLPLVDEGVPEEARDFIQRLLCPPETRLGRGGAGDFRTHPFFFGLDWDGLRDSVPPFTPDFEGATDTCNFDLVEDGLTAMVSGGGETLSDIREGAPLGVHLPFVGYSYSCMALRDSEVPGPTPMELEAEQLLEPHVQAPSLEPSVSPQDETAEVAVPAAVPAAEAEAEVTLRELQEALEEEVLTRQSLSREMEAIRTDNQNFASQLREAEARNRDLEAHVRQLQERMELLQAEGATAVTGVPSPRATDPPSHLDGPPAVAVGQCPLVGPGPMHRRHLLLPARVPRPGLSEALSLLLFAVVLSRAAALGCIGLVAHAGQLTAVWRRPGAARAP

For experiment [5], the target named is Serine/threonine-protein kinase 10 (Homo sapiens) (UniProt O94804).
Experiment [6] has as its target T2, Serine/threonine-protein kinase 4 (Homo sapiens) (UniProt Q13043).
T2 sequence (whole entry): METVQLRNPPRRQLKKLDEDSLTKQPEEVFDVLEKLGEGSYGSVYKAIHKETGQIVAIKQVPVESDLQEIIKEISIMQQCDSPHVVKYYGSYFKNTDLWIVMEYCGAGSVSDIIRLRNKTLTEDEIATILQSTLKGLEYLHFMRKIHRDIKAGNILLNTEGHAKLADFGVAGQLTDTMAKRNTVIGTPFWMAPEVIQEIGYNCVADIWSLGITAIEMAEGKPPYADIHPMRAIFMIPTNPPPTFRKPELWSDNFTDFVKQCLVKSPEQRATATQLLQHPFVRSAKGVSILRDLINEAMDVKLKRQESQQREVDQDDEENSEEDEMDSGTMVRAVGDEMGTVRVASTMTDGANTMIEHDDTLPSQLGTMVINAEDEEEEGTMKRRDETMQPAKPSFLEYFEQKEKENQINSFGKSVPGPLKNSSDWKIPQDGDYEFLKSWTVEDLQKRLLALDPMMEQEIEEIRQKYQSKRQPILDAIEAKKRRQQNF

Chain of Dual specificity protein kinase CLK3 (Homo sapiens) (P49761 whole entry, looked up): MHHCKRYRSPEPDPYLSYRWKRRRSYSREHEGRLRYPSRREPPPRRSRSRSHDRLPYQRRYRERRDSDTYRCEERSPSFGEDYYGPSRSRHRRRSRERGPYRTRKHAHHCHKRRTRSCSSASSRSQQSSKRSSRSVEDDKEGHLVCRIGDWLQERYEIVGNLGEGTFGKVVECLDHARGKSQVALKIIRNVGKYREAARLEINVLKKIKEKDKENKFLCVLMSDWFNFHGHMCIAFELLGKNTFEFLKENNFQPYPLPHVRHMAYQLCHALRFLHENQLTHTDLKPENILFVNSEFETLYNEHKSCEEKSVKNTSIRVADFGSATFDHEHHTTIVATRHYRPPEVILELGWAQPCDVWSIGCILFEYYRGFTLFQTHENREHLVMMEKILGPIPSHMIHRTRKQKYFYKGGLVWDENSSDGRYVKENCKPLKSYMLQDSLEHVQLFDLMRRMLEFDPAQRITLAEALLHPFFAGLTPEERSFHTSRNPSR
Chain of Dual specificity protein kinase CLK1 (Homo sapiens) (P49759 whole entry, looked up): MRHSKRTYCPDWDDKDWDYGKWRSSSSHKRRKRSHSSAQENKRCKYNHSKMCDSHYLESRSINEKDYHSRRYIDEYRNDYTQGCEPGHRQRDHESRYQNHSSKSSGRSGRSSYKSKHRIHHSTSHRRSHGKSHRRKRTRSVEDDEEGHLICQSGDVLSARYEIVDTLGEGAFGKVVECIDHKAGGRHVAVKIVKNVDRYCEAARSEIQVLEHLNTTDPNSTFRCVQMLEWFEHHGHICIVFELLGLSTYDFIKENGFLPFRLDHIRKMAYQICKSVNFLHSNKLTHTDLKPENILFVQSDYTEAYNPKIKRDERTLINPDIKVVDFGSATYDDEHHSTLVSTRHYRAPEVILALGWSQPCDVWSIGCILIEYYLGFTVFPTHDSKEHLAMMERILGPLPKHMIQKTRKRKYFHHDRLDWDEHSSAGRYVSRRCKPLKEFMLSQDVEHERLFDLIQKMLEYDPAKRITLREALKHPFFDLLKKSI
Chain of Serine/threonine-protein kinase 10 (Homo sapiens) (O94804 whole entry, looked up): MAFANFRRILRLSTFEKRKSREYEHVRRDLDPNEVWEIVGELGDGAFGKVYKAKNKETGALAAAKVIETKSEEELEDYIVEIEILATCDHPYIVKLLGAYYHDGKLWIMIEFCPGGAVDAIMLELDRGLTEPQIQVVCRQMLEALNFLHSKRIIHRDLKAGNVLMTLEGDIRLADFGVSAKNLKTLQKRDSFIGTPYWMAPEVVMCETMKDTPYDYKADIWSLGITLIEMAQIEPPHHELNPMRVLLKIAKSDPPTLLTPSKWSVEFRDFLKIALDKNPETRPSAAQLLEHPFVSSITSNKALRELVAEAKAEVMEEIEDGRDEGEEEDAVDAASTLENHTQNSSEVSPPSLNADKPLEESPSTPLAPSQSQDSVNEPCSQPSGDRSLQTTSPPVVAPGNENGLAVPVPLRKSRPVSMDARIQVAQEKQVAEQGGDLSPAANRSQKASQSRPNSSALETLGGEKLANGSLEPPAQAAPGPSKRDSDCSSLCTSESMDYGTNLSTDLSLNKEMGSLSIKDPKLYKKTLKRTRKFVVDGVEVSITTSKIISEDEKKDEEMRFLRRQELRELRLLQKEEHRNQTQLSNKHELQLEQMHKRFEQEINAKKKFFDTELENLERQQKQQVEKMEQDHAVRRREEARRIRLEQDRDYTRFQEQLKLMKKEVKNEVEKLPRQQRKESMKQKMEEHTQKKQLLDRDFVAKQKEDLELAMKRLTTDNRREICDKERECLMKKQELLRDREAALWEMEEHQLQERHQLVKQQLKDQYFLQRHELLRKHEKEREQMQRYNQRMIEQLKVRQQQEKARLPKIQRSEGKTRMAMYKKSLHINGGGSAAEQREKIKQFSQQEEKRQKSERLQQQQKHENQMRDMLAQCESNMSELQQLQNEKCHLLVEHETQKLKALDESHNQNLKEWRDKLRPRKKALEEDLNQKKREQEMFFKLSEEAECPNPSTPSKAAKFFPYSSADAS
Chain of Calcium/calmodulin-dependent protein kinase type II subunit gamma (Homo sapiens) (Q13555 whole entry): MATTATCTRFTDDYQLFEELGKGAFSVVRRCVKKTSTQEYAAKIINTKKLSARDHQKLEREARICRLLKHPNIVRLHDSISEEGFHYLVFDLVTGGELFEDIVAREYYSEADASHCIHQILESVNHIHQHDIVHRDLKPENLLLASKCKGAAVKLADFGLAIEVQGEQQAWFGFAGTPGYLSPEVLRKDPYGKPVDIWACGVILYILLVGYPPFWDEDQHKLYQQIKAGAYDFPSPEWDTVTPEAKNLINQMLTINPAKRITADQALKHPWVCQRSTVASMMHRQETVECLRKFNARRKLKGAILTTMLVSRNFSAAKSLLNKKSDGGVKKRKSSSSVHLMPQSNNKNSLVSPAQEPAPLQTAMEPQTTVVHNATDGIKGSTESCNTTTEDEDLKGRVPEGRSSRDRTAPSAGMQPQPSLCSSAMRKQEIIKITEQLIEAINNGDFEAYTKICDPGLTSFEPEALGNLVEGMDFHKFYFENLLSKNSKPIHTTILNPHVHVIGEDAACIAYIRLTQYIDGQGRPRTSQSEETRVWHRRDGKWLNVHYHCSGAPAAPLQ

Broadly, the ΔTm is the change in melting temperature against a reference sample. For `Cc1c2ccncc2c(C)c2c1[nH]c1ccccc12` [ELLIPTECINE], the ΔTm is 1.6 °C in experiment [1]; 6.6 °C in experiment [2]; 4.2 °C in experiment [3]; 3.5 °C in experiment [4]; 1.9 °C in experiment [5]; 4 °C in experiment [6].

Turning to `CC(C)(C)n1nc(-c2cccc3ccccc23)c2c(N)ncnc21`, the ΔTm was found to be 0.2 °C in experiment [1]; 1.1 °C in experiment [2]; 0.2 °C in experiment [3]; 2.5 °C in experiment [4]; 4 °C in experiment [5]; 3.2 °C in experiment [6].

As to `COc1ccc(Cl)cc1NC(=O)Nc1cc(C)nc2ccccc12`, the ΔTm in experiment [1] was -0.5 °C; in experiment [2] it was 0.5 °C; in experiment [3], -0.1 °C; in experiment [4], 0.1 °C; in experiment [5], 0.6 °C.

Turning to `COc1cc(/C=C/C(=O)CC(=O)/C=C/c2ccc(O)c(OC)c2)ccc1O` [CURCUMIN], the ΔTm in experiment [1] is -0.2 °C; in experiment [2] it was 7.9 °C; in experiment [3] it was 3.6 °C; in experiment [4], 1.5 °C; in experiment [5], 6.1 °C; in experiment [6], 5.5 °C.

For `COc1cccc(-c2cc(=O)c3ccccc3o2)c1N`, the ΔTm was 0.1 °C in experiment [1]; 0.2 °C in experiment [2]; 0 °C in experiment [3]; -0.2 °C in experiment [4]; 0.4 °C in experiment [5]; -0.1 °C in experiment [6].

Regarding `C[S+]([O-])c1ccc(CSc2nc(-c3ccc(F)cc3)c(-c3ccncc3)[nH]2)cc1` (stereo not given), the ΔTm was -0.1 °C in experiment [1]; -0.5 °C in experiment [2]; -0.1 °C in experiment [3]; 0.5 °C in experiment [4]; 0.8 °C in experiment [5]; 0.1 °C in experiment [6].

Turning to `CC(C)(C)n1nc(-c2ccc(Cl)cc2)c2c(N)ncnc21`, the ΔTm stood at 0.4 °C in experiment [1]; 2.1 °C in experiment [2]; 0.7 °C in experiment [3]; 0.6 °C in experiment [4]; 4.7 °C in experiment [5]; 2.1 °C in experiment [6].

With `O=C(Nc1cccc(Nc2nccc(Nc3cccc(C(F)(F)F)c3)n2)c1)C1CC1` [ANILINOPYRIMIDINE1], the ΔTm in experiment [1] worked out at 0.2 °C; in experiment [2] it was 1.9 °C; in experiment [3] it was 0.6 °C; in experiment [4], 9.3 °C; in experiment [5] it was 1 °C; in experiment [6], 0.9 °C.

Consider `C[S+]([O-])c1ccc(-c2nc(-c3ccc(F)cc3)c(-c3ccncc3)[nH]2)cc1` (stereo not given) [SB-203580], for which the ΔTm is 0 °C in experiment [1]; -0.3 °C in experiment [2]; -0.1 °C in experiment [3]; 0.1 °C in experiment [4]; 2.7 °C in experiment [5]; 1 °C in experiment [6].

As for `O=C1Nc2ccccc2/C1=C\c1ccc[nH]1`, the shift in melting temperature (ΔTm) in experiment [1] is 1.4 °C; in experiment [2], 2.7 °C; in experiment [3], 0.5 °C; in experiment [4], -0.6 °C; in experiment [5], 5.3 °C; in experiment [6] it was 7.7 °C.

On to `COc1nccc(-c2c(-c3ccc(F)cc3)ncn2[C@H]2CC[C@H](O)CC2)n1`, for which the ΔTm in experiment [1] was 0.1 °C; in experiment [2], 1.7 °C; in experiment [3], 0.1 °C; in experiment [5], 1.9 °C; in experiment [6], 6.1 °C.

In the case of `O=C(O)c1cc(N(Cc2ccccc2O)Cc2cc(O)ccc2O)ccc1O` [LAVENDUSTIN A], the ΔTm was -0.1 °C in experiment [1]; 0.5 °C in experiment [2]; 0.3 °C in experiment [3]; 0.9 °C in experiment [4]; 0.1 °C in experiment [5]; 0.5 °C in experiment [6].

`COc1cc2ncnc(Nc3ccc(NC(=O)c4ccccc4)cc3)c2cc1OC` [ANILINOQUINAZOLINE1]: the ΔTm stood at 0.2 °C in experiment [1]; 1 °C in experiment [2]; 0.4 °C in experiment [3]; 1.1 °C in experiment [4]; 0.1 °C in experiment [5]; 0.6 °C in experiment [6].

With `CCN1/C(=C/C(C)=O)Sc2ccc(OC)cc21`, the ΔTm in experiment [1] was 0.1 °C; in experiment [4] it was 2.5 °C; in experiment [5], 0.4 °C; in experiment [6], 0.1 °C.
